In PMC8621172, “Manipulating Estrogenic/Anti-Estrogenic Activity of Triphenylethylenes towards Development of Novel Anti-Neoplastic SERMs” (International Journal of Molecular Sciences, 2021):

How the values were obtained:
[1] = system: MCF-7 cells; assay: NCI growth inhibition on MCF-7 (single dose and five-dose, SRB); type: cell-based, human; conditions: for Growth Inhibition on MCF-7 (%) / inhibition at 10 µM: 10 µM; for inhibition at 10 µM / GI50: Homo sapiens, MCF7; for GI50: MCF-7, five-dose assay, 48 h
Method: Compounds were submitted to the Developmental Therapeutics Program (DTP) of the National Cancer Institute (NCI). The program uses a panel of 60 human tumor cell lines representing nine tissue types, including leukemia, non-small cell lung cancer (NSCLC), melanoma, colon cancer, ovarian cancer, CNS cancer, renal cancer, prostate cancer, and breast cancer, to screen for potential new anti-cancer agents. […] Primary screening of synthesized compounds was performed by testing a single high dose of 10 µM in the full NCI-60 panel. The percent growth of treated cells relative to the no-drug control and relative to the time zero number of cells was measured, and a mean graph was provided. The percentage inhibition was then calculated by subtracting the values obtained from 100.
All compounds were subjected to the NCI in vitro disease-oriented human cells screening panel assay. The human tumor cell lines of the cancer-screening panel are grown in RPMI 1640 medium containing 5% fetal bovine serum and 2 mM L-glutamine. For a typical screening experiment, cells are inoculated into 96-well microtiter plates in 100 μL at plating densities ranging from 5000 to 40,000 cells/well depending on the doubling time of individual cell lines. After cell inoculation, the microtiter plates are incubated at 37 °C, 5% CO2, 95% air, and 100% relative humidity for 24 h prior to the addition of experimental drugs. After 24 h, two plates of each cell line are fixed in situ with TCA to represent a measurement of the cell population for each cell line at the time of drug addition. Experimental drugs are solubilized in dimethyl sulfoxide at 400-fold the desired final maximum test concentration and stored frozen prior to use. At the time of drug addition, an aliquot of frozen concentrate is thawed and diluted to twice the desired final maximum test concentration with complete medium containing 50 μg/mL gentamicin. Additional four, 10-fold, or ½ log serial dilutions are made to provide a total of five drug concentrations plus control. Aliquots of 100 μL of these different drug dilutions are added to the appropriate microtiter wells already containing 100 μL of medium, resulting in the required final drug concentrations. Following drug addition, the plates are incubated for an additional 48 h at 37 °C, 5% CO2, 95% air, and 100% relative humidity. For adherent cells, the assay is terminated by the addition of cold TCA. Cells are fixed in situ by the gentle addition of 50 μL of cold 50% (w/v) TCA (final concentration, 10% TCA) and incubated for 60 min at 4 °C. The supernatant is discarded, and the plates are washed five times with tap water and air-dried. Sulforhodamine B (SRB) solution (100 μL) at 0.4% (w/v) in 1% acetic acid is added to each well, and plates are incubated for 10 min at room temperature. After staining, unbound dye is removed by washing five times with 1% acetic acid, and the plates are air-dried. Bound stain is subsequently solubilized with a 10 mM trizma base, and the absorbance is read on an automated plate reader at a wavelength of 515 nm. For suspension cells, the methodology is the same except that the assay is terminated by fixing settled cells at the bottom of the wells by gently adding 50 μL of 80% TCA (final concentration, 16% TCA). Compounds are screened at a dose of 10 µM, hits showing mean growth inhibition over 60 cell lines >50% are escalated for 5-dose screening assay. To construct a dose-response curve, about 60 cell lines of nine tumor subpanels were incubated with five concentrations (0.01–100 μM) for each compound. Three response parameters (GI50, TGI, and LC50) were calculated for each cell line.

[2] = system: Ishikawa endometrial adenocarcinoma cell line; assay: Alkaline phosphatase (AlkP) activity in Ishikawa cells; type: cell-based, human; conditions: for Relative alkaline phosphatase activity: 72 h, DMSO set to 1; for effect on AlkP activity (in words): 72 h treatment, 5-dose assay 1 nM to 10 µM
Method: Alkaline phosphatase (AlkP) activity in these human endometrial cancer cells is markedly stimulated by estrogens.
Because of the potential SERM character of the compounds tested, their estrogenic effects were studied in an endometrial-derived cell culture model, the human endometrial adenocarcinoma cell line Ishikawa. […] All compounds were screened at two concentrations, 0.1 and 1 µM. Its agonistic effect was compared to the vehicle control DMSO (data shown in Supplementary Materials). […] The four compounds were studied in a concentration range of 1 nM to 10 µM.
Estrogens stimulate the activity of alkaline phosphatase (AlkP) in Ishikawa cells (human endometrial adenocarcinoma cells; kindly provided by Prof. Masato Nishida, National Hospital Organization, Kasumigaura Medical Center, Japan). This enzyme activity is estimated by using the chromogen substrate (4-nitrophenylphosphate). […] The procedure was modified by Littlefield et al., 1990 [42].
After 72 h incubation, cells were harvested, washed twice with PBS, and incubated at −80 °C for about 30 min to lyse the cells. After thawing, the lysates were resuspended in reaction buffer (274 mM mannitol, 100 mM CAPS, 4 mM MgCl2, pH 10.4) containing 4 mM p-nitrophenylphosphate (NPP). After incubation for 1 h in the dark, AlkP activity was assayed by using the hydrolysis of p-nitrophenylphosphate to p-nitrophenol at pH 10.4 and the spectrometric determination of the kinetic of the product formation at 405 nm. All compounds were tested in technical triplicates and biological triplicates. Statistical analysis was performed by analysis of variance (ANOVA) and Tukey’s post-hoc test with the significance level of p < 0.05.

SMILES | Relative alkaline phosphatase activity ([2]; 1 µM) | inhibition at 10 µM [1] [%] | other results
COc1ccc(C(C)=C(c2ccc(O)cc2)c2ccc(Cl)cc2)cc1F [Compound 3, E/Z-4-[1-(4-Chlorophenyl)-2-(3-fluoro-4-methoxyphenyl)propenyl]-phenol] | 1.13 ± 0.43 |  | Growth Inhibition on MCF-7 (%) [1]: No inhibition
COc1cc(C(C)=C(c2ccc(O)cc2)c2ccc(Cl)cc2)ccc1F [Compound 4, E/Z-4-[1-(4-Chlorophenyl)-2-(4-fluoro-3-methoxyphenyl)propenyl]-phenol] | 1.10 ± 0.39 |  | Growth Inhibition on MCF-7 (%) [1]: No inhibition
CC(=C(c1ccc(Cl)cc1)c1ccc(OCCCN(C)C)cc1)c1ccccc1 [Compound 5, E/Z-(3-{4-[1-(4-Chloro-phenyl)-2-phenyl-propenyl]-phenoxy}-propyl)-dimethyl-amine] | 1.08 ± 0.33 | 55 | Relative alkaline phosphatase activity ([2]; 1 nM): 0.93 ± 0.64; Relative alkaline phosphatase activity ([2]; 10 nM): 0.95 ± 0.37; Relative alkaline phosphatase activity ([2]; 100 nM): 1.05 ± 0.30; Relative alkaline phosphatase activity ([2]; 10 µM): 0.21 ± 0.16; effect on AlkP activity (in words) [2]: No significant effects
CC(=C(c1ccc(Cl)cc1)c1ccc(OCCN2CCCC2)cc1)c1ccccc1 [Compound 6, E/Z-1-(2-{4-[1-(4-Chloro-phenyl)-2-phenyl-propenyl]-phenoxy}-ethyl)-pyrrolidine] | 2.55 ± 1.35 | 66.2 | 
CC(=C(c1ccc(Cl)cc1)c1ccc(OCCN2CCCCC2)cc1)c1ccccc1 [Compound 7, E/Z-1-(2-{4-[1-(4-Chloro-phenyl)-2-phenyl-propenyl]-phenoxy}-ethyl)-piperidine] | 2.55 ± 1.80 | 56.4 | 
CC(=C(c1ccc(Cl)cc1)c1ccc(OCCN2CCOCC2)cc1)c1ccccc1 [Compound 8, E/Z-4-(2-{4-[1-(4-Chloro-phenyl)-2-phenyl-propenyl]-phenoxy}-ethyl)-morpholine] | 1.16 ± 0.15 | 30.9 | 
CC(=C(c1ccc(Cl)cc1)c1ccc(OCCN2CCCCCC2)cc1)c1ccccc1 [Compound 9, E/Z-1-(2-{4-[1-(4-Chloro-phenyl)-2-phenyl-propenyl]-phenoxy}-ethyl)-azepane] | 2.94 ± 1.29 | 24 | 
COc1ccc(C(C)=C(c2ccc(Cl)cc2)c2ccc(OCCCN(C)C)cc2)cc1 [Compound 10, E/Z-(3-{4-[1-(4-Chloro-phenyl)-2-(4-methoxy-phenyl)-propenyl]-phenoxy}-propyl)-dimethyl-amine] | 2.55 ± 1.80 | 63.1 | 
COc1ccc(C(C)=C(c2ccc(Cl)cc2)c2ccc(OCCN3CCCC3)cc2)cc1 [Compound 11, E/Z-1-(2-{4-[1-(4-Chloro-phenyl)-2-(4-methoxy-phenyl)-propenyl]-phenoxy}-ethyl)-pyrrolidine] |  | 87 | GI50 [1]: 890 nM; Relative alkaline phosphatase activity ([2]; 1 nM): 1.25 ± 0.61; Relative alkaline phosphatase activity ([2]; 10 nM): 1.13 ± 0.31; Relative alkaline phosphatase activity ([2]; 100 nM): 1.75 ± 0.50; Relative alkaline phosphatase activity ([2]; 10 µM): 1.36 ± 0.38; effect on AlkP activity (in words) [2]: increase the AlkP activity in a dose-pendent manner
COc1ccc(C(C)=C(c2ccc(Cl)cc2)c2ccc(OCCN3CCCCC3)cc2)cc1 [Compound 12, E/Z-1-(2-{4-[1-(4-Chloro-phenyl)-2-(4-methoxy-phenyl)-propenyl]-phenoxy}-ethyl)-piperidine] |  | 79.7 | GI50 [1]: 600 nM; Relative alkaline phosphatase activity ([2]; 1 nM): 0.95 ± 0.02; Relative alkaline phosphatase activity ([2]; 10 nM): 0.96 ± 0.01; Relative alkaline phosphatase activity ([2]; 100 nM): 1.14 ± 0.01; Relative alkaline phosphatase activity ([2]; 10 µM): 0.42 ± 0.13; effect on AlkP activity (in words) [2]: increase the AlkP activity in a dose-pendent manner
COc1ccc(C(C)=C(c2ccc(Cl)cc2)c2ccc(OCCN3CCOCC3)cc2)cc1 [Compound 13, E/Z-4-(2-{4-[1-(4-Chloro-phenyl)-2-(4-methoxy-phenyl)-propenyl]-phenoxy}-ethyl)-morpholine] | 3.74 ± 2.05 | 1.21 | 
COc1ccc(C(C)=C(c2ccc(Cl)cc2)c2ccc(OCCN3CCCCCC3)cc2)cc1 [Compound 14, E/Z-1-(2-{4-[1-(4-Chloro-phenyl)-2-(4-methoxy-phenyl)-propenyl]-phenoxy}-ethyl)-azepane] | 6.58 ± 2.24 | 63.5 | 
COc1ccc(C(C)=C(c2ccc(Cl)cc2)c2ccc(OCCCN(C)C)cc2)cc1F [Compound 15, E/Z-(3-{4-[1-(4-Chlorophenyl)-2-(3-fluoro-4-methoxyphenyl)-propenyl]-phenoxy}-propyl)-dimethyl-amine] | 0.86 ± 0.12 | 87 | 
COc1cc(C(C)=C(c2ccc(Cl)cc2)c2ccc(OCCCN(C)C)cc2)ccc1F [Compound 22, E/Z-(3-{4-[1-(4-Chlorophenyl)-2-(4-fluoro-3-methoxyphenyl)-propenyl]-phenoxy}-propyl)-dimethyl-amine] |  | 33.2 | 
COc1cc(C(C)=C(c2ccc(Cl)cc2)c2ccc(OCCN3CCCC3)cc2)ccc1F [Compound 23, E/Z-1-(2-{4-[1-(4-Chlorophenyl)-2-(4-fluoro-3-methoxyphenyl)-propenyl]-phenoxy}-ethyl)-pyrrolidine] |  | 73.5 | 
COc1cc(C(C)=C(c2ccc(Cl)cc2)c2ccc(OCCN3CCCCC3)cc2)ccc1F [Compound 24, E/Z-1-(2-{4-[1-(4-Chlorophenyl)-2-(4-fluoro-3-methoxyphenyl)-propenyl]-phenoxy}-ethyl)-piperidine] |  | 49.3 | 
COc1cc(C(C)=C(c2ccc(Cl)cc2)c2ccc(OCCN3CCOCC3)cc2)ccc1F [Compound 25, E/Z-4-(2-{4-[1-(4-Chlorophenyl)-2-(4-fluoro-3-methoxyphenyl)-propenyl]-phenoxy}-ethyl)-morpholine] |  | 2.75 | 
COc1cc(C(C)=C(c2ccc(Cl)cc2)c2ccc(OCCN3CCCCCC3)cc2)ccc1F [Compound 26, E/Z-1-(2-{4-[1-(4-Chlorophenyl)-2-(4-fluoro-3-methoxyphenyl)-propenyl]-phenoxy}-ethyl)-azepane] |  | 36.5 | 
COc1cc(C(C)=C(c2ccc(Cl)cc2)c2ccc(OCCN(C)C)cc2)ccc1F [Compound 27, E/Z-(2-{4-[1-(4-Chlorophenyl)-2-(4-fluoro-3-methoxyphenyl)-propenyl]-phenoxy}-ethyl)-dimethyl-amine] |  | 68.3 | 
CCN(CC)CCOc1ccc(C(=C(C)c2ccc(F)c(OC)c2)c2ccc(Cl)cc2)cc1 [Compound 28, E/Z-(2-{4-[1-(4-Chlorophenyl)-2-(4-fluoro-3-methoxyphenyl)-propenyl]-phenoxy}-ethyl)-diethyl-amine] |  | > 100 | GI50 [1]: 2170 nM
